# Source: ChEMBL document CHEMBL4196086, “Recent advances of imidazole-containing derivatives as anti-tubercular agents” (Eur J Med Chem, 2018)
# Key:
# [1] = system: Mycobacterium tuberculosis; assay: Antimycobacterial activity against Mycobacterium tuberculosis; assay type: functional
# [2] = system: Mycobacterium tuberculosis; assay: Antimycobacterial activity against Mycobacterium tuberculosis H37Rv in logarithmic phase; assay type: functional
# [3] = system: Mycobacterium tuberculosis; assay: Antimycobacterial activity against Mycobacterium tuberculosis H37Rv in hypoxia-induced latent phase; assay type: functional
# [4] = system: Mycobacterium tuberculosis; assay: Antimycobacterial activity against Mycobacterium tuberculosis H37Rv after 5 days by MABA; assay type: functional; details: 120 h
# [5] = system: Mycobacterium tuberculosis; assay: Antimycobacterial activity against Mycobacterium tuberculosis H37Rv; assay type: functional
# [6] = Inhibition of Mycobacterium tuberculosis IMPDH
# [7] = system: Mycobacterium tuberculosis; assay: Antimycobacterial activity against non-replicating Mycobacterium tuberculosis; assay type: functional
# [8] = system: Mycobacterium tuberculosis; assay: Antimycobacterial activity against replicating Mycobacterium tuberculosis; assay type: functional
# [9] = system: Mycobacterium tuberculosis; assay: Growth inhibition of Mycobacterium tuberculosis H37Rv at 100 ug/ml relative to control; assay type: functional; details: read-out: GI
# [10] = system: Mycobacterium tuberculosis; assay: Antimycobacterial activity against Mycobacterium tuberculosis H37Rv ATCC 27294 by MABA; assay type: functional
# [11] = Selectivity index, ratio of IC50 for African green monkey Vero cells to MIC for Mycobacterium tuberculosis H37Rv ATCC 27294; assay type: toxicity; details: read-out: Selectivity Index
# [12] = system: Mycobacterium tuberculosis; assay: Antimycobacterial activity against Mycobacterium tuberculosis ATCC 35820; assay type: functional
# [13] = system: Mycolicibacterium fortuitum; assay: Antimycobacterial activity against Mycobacterium fortuitum; assay type: functional
# [14] = system: Mycobacterium tuberculosis; assay: Antimycobacterial activity against Mycobacterium tuberculosis ATCC 35837; assay type: functional
# [15] = system: Mycobacterium tuberculosis; assay: Antimycobacterial activity against Mycobacterium tuberculosis ATCC 27294; assay type: functional
# [16] = system: Mycobacterium tuberculosis; assay: Antimycobacterial activity against Mycobacterium tuberculosis ATCC 35822; assay type: functional
# [17] = system: Mycobacterium tuberculosis; assay: Antimycobacterial activity against Mycobacterium tuberculosis ATCC 35828; assay type: functional
# [18] = system: Mycolicibacterium smegmatis; assay: Antimycobacterial activity against Mycobacterium smegmatis; assay type: functional
# [19] = system: Mycobacterium tuberculosis; assay: Potency index, ratio of pyrazinamide MIC to compound MIC for Mycobacterium tuberculosis H37Rv; assay type: functional
# [20] = system: Mycobacterium tuberculosis; assay: Potency index, ratio of isoniazid MIC to compound MIC for Mycobacterium tuberculosis H37Rv; assay type: functional
# [21] = system: Mycobacterium tuberculosis; assay: Potency index, ratio of streptomycin MIC to compound MIC for Mycobacterium tuberculosis H37Rv; assay type: functional
# [22] = system: Mycobacterium tuberculosis; assay: Potency index, ratio of ciprofloxacin MIC to compound MIC for Mycobacterium tuberculosis H37Rv; assay type: functional
# [23] = system: HEK293; assay: Cytotoxicity against HEK293 cells after 24 hrs by MTT assay; assay type: cell-based; details: Homo sapiens, HEK293, 24 h
# [24] = system: Mycobacterium tuberculosis; assay: Antimycobacterial activity against Mycobacterium tuberculosis H37Rv ATCC 27294 by serial dilution assay; assay type: functional
# [25] = Mycobacterium tuberculosis, H37Rv
compound,measurement,setting,value
O=C1/C(=C\c2ccc(Br)cc2)SC(c2ccc(-n3ccnc3)cc2)N1Nc1ccccc1 (centres undefined),MIC,[1],14.3 to 49.7 µM
COc1ccc(-c2nc3ccc(-c4ccc5nc(-c6ccccc6)[nH]c5c4)cc3[nH]2)cc1,MIC,[2],0.25 to 1 µg/mL
same,MIC,[3],0.25 to 1 µg/mL
O=C(O)c1cn(C2CC2)c2cc(N3CCNCC3)c(F)cc2c1=O [CIPROFLOXACIN],MIC,[4],3.12 µg/mL
Fc1cc2nc(Cn3ccnc3)[nH]c2cc1Oc1ccccc1,MIC,[5]; [25],12.5 to 100 µg/mL
Clc1ccc(Cn2cc(-c3ccccc3)c(C(c3ccccc3)n3ccnc3)c2)c(Cl)c1 (centres undefined),MIC,[5]; [25],1 to 16 µg/mL
O=C(Cn1c(-c2cscn2)nc2ccccc21)Nc1ccc([N+](=O)[O-])cc1,IC50,[6],3000 to 10000 nM
CCc1nc2ccc(C)cc2n1CCCNc1ccc(C)cc1,MIC,[7],0.056 to 0.88 µM
CCCc1cc(=O)oc2c1c(OC)cc1[nH]c(C(=O)N(C)C)[n+]([O-])c12,MIC,[7],> 50 µg/mL
same,MIC,[8],> 50 µg/mL
CCc1nc2ccc(C)cc2n1CCCNc1ccc(C)cc1C,MIC,[7],0.056 to 0.88 µM
COc1ccc(-n2c(-c3cc4cc(OC)ccc4n4nnnc34)nc(-c3ccccc3)c2-c2ccccc2)cc1,inhibition of growth at 100 µg/mL,[9],17 to 99%
COc1ccc(-n2c(-c3cc4ccccc4n4nnnc34)nc(-c3ccccc3)c2-c2ccccc2)cc1,inhibition of growth at 100 µg/mL,[9],17 to 99%
CCCOc1cccc(NC(=O)Cn2c(-c3cscn3)nc3ccccc32)c1,IC50,[6],3000 to 10000 nM
CCSc1nnc(-c2ncc([N+](=O)[O-])[nH]2)s1,MIC,[10],3.13 to 6.25 µg/mL
same,selectivity ratio,[11],0.3 to 0.6
COc1ccc(-n2c(-c3cc4cc(Cl)ccc4n4nnnc34)nc(-c3ccccc3)c2-c2ccccc2)cc1,inhibition of growth at 100 µg/mL,[9],17 to 99%
O=C(Cn1c(-c2cscn2)nc2ccccc21)Nc1ccc(Br)cc1,IC50,[6],3000 nM
CCCc1cc(=O)oc2c1c(OCCN1CCOCC1)cc1[nH]c(C(=O)N(C)C)[n+]([O-])c12,MIC,[7],> 50 µg/mL
same,MIC,[8],> 50 µg/mL
Fc1ccc(-c2cn(Cc3ccc(Cl)cc3Cl)cc2C(c2ccccc2)n2ccnc2)cc1 (centres undefined),MIC,[5]; [25],1 µg/mL
COc1ccc(-c2nc3cc(-c4ccc5[nH]c(-c6ccc(OC)cc6)nc5c4)ccc3[nH]2)cc1,MIC,[2],0.5 to 16 µg/mL
same,MIC,[3],0.5 to 16 µg/mL
Cc1ccc(-n2c(-c3cc4cc(C)ccc4n4nnnc34)nc(-c3ccccc3)c2-c2ccccc2)cc1,inhibition of growth at 100 µg/mL,[9],17 to 99%
CCc1nc2ccc(C)cc2n1CCCNc1ccccc1,MIC,[7],0.056 µM
NNC(=O)c1ccncc1 [ISONIAZID],MIC,[4],6.25 µg/mL
same,MIC,[5]; [25],0.2 µg/mL
CCc1nc2ccc(C)cc2n1CCCCNc1cccc(Cl)c1,MIC,[7],0.056 to 2.6 µM
Clc1ccc(-n2ncc(C(c3ccccc3)n3ccnc3)c2-c2ccccc2Cl)c(Cl)c1 (centres undefined),MIC,[12],6.7 to 57.7 µM
same,MIC,[13],6.7 to 57.7 µM
same,MIC,[14],6.7 to 57.7 µM
same,MIC,[15],6.7 to 57.7 µM
same,MIC,[16],6.7 to 57.7 µM
same,MIC,[17],6.7 to 57.7 µM
same,MIC,[18],6.7 to 57.7 µM
Cc1ccc(-n2c(-c3cc4ccccc4n4nnnc34)nc(-c3ccccc3)c2-c2ccccc2)cc1,inhibition of growth at 100 µg/mL,[9],17 to 99%
Cn1c(-c2cccc(Cl)c2Cl)nc2cc(-c3nc(-c4ccccc4Cl)no3)ccc21,Ratio,[19],2
same,Ratio,[20],4
same,MIC,[4],1.6 to 25 µg/mL
same,Ratio,[21],4
same,Ratio,[22],2
same,IC50,[23],355 µg/mL
COc1ccc(NC(=O)Cn2c(-c3cscn3)nc3ccccc32)c(OC)c1,IC50,[6],3000 to 10000 nM
Cc1ccc(/C=C2/SC(c3ccc(-n4ccnc4)cc3)N(Nc3ccccc3)C2=O)cc1 (centres undefined),MIC,[1],14.3 to 49.7 µM
CS(=O)(=O)c1nnc(-c2ncc([N+](=O)[O-])[nH]2)s1,MIC,[10],> 6.25 µg/mL
same,selectivity ratio,[11],0.3 to 0.6
O=C1/C(=C\c2ccc(Cl)cc2)SC(c2ccc(-n3ccnc3)cc2)N1Nc1ccccc1 (centres undefined),MIC,[1],14.3 to 49.7 µM
CO[C@H]1/C=C/O[C@@]2(C)Oc3c(C)c(O)c4c(O)c(c(/C=N/N5CCN(C)CC5)c(O)c4c3C2=O)NC(=O)/C(C)=C\C=C\[C@H](C)[C@H](O)[C@@H](C)[C@@H](O)[C@@H](C)[C@H](OC(C)=O)[C@@H]1C [RIFAMPIN],MIC,[24],0.125 to 0.25 µg/mL
same,MIC98,[5],40 µg/mL
CCc1nc2ccc(C)cc2n1CCCCSc1ccccc1,MIC,[7],0.056 to 2.6 µM
Cc1ccc(-n2c(-c3cc4cc(Cl)ccc4n4nnnc34)nc(-c3ccccc3)c2-c2ccccc2)cc1,inhibition of growth at 100 µg/mL,[9],17 to 99%
same,MIC99,[5]; [25],25 µg/mL
COc1cccc(-c2nc3ccc(-c4ccc5nc(-c6cccc(OC)c6)[nH]c5c4)cc3[nH]2)c1,MIC,[2],0.5 to 16 µg/mL
same,MIC,[3],0.5 to 16 µg/mL
CCCc1cc(=O)oc2c1c(OC)cc1[nH]c(C(=O)OCC)[n+]([O-])c12,MIC,[7],> 50 µg/mL
same,MIC,[8],> 50 µg/mL
CCc1nc2ccc(C)cc2n1CCCCSc1ccc(OC)cc1,MIC,[7],0.056 to 2.6 µM
CCc1nc2ccc(C)cc2n1CCCCNc1ccc(OC)cc1,MIC,[7],0.056 to 2.6 µM
Oc1ccc(-c2nc3ccc(-c4ccc5nc(-c6ccc(O)cc6)[nH]c5c4)cc3[nH]2)cc1,MIC,[2],0.5 to 16 µg/mL
same,MIC,[3],0.5 to 16 µg/mL
CC[S+]([O-])c1nnc(-c2ncc([N+](=O)[O-])[nH]2)s1 (centres undefined),MIC,[10],1.56 µg/mL
same,selectivity ratio,[11],0.3 to 0.6
CN[C@@H]1[C@H](O[C@H]2[C@H](O[C@H]3[C@H](O)[C@@H](O)[C@H](N=C(N)N)[C@@H](O)[C@@H]3N=C(N)N)O[C@@H](C)[C@]2(O)C=O)O[C@@H](CO)[C@H](O)[C@H]1O [STREPTOMYCIN],MIC,[4],6.25 µg/mL
same,MIC,[5]; [25],0.7 µg/mL
